Biological target: Factor D (Homo sapiens (Human), UniProt P00746)
Experiment: Factor D esterolytic assay (Z-Lys-SBzl substrate, DTNB, 405 nm)
Assay type: biochemical
Settings: Z-Lys-SBzl 1.29 mM, pH 7.5, 10% DMSO, tested a minimum of three times, read-out: Measured Ki (IC50) Value for Compounds: IC50
Protocol: The IC50 value of a compound (i.e., the concentration of the compound that inhibits 50% of the enzymatic activity) was calculated according to the procedure reported in U.S. Pat. No. 6,653,340 B1, e.g., column 74 (incorporated by reference).
Specifically, the compounds were dissolved in a stock solution of DMSO at 10.0 or 100 mM. A portion of this stock solution was added to assay buffer in a final volume of 50 μL. Controls included buffer alone and enzyme solutions to which DMSO was added. Substrate was added to the reaction wells immediately or after incubation at room temperature. The reaction rates were measured spectrophotometrically by the generation of product at 405 nm for 600 sec. Background absorbance at 690 nm was measured and subtracted from the absorbance at 405 nm for each well.
The reaction rate for enzyme alone was compared to the rate of enzyme in the presence of inhibitor and the percent inhibition was calculated as shown below: Percent Inhibition=[Rate without inhibitor−Rate with inhibitor)/(Rate without inhibitor)]×100 Factor D Esterolytic Assay:
An established esterolytic assay for the measurement of Factor D activity and inhibition of Factor D activity was used (Kam, C. M.; McRae, B. J.; Harper, J. W.; Niemann, M. A.; Volanakis, J. E.; Powers, J. C. Human complement proteins D, C2, and B Active site mapping with peptide thioester substrates. J Biol. Chem. 1987, 262, 3444-3451). For this assay Z-Lys-SBzl, 1.29 mM (Kim, S.; Narayana, S. V. L; Volanakis, J. E. Mutational analysis of the substrate binding site of human complement Factor D. Biochemistry. 1994, 33, 14393-14399.) was used as the substrate for Factor D ([…]). Hydrolysis of this compound by Factor D liberated a free sulfhydryl group which is then reacted with 5,5′-dithiobis(2nitrobenzoic acid) producing an intense yellow color (Habeeb, A. F. S. A. Reaction of protein sulfhydryl groups with Ellman's Reagent. Methods in Enzymol. 1976, 25, 457-464). The assays were performed in 96 well microtiter plates and rates of hydrolysis were monitored at 405 nm on a Biotek Synergy H1 plate reader. Hydrolysis rates were reported as change in mOD/min. The assay was conducted in 100 mM HEPES, 500 mM NaCl, pH 7.5 containing 10% DMSO in a final volume of 50 μL per well.
An IC50, a compound concentration which inhibits 50% of the enzymatic activity, was calculated. Compounds in the examples were tested a minimum of three times.

Sequence of Factor D (P00746 26-253): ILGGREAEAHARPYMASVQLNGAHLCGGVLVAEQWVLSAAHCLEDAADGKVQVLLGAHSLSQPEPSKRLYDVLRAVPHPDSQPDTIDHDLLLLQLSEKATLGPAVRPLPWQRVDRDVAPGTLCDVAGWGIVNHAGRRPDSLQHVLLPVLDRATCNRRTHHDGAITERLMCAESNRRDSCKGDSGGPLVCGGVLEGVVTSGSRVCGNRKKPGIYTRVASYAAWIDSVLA

| IC50 | Compound |
| --- | --- |
| < 1000 nM | NCc1cccc(-c2cc(NC(=O)[C@@H]3CCC[C@H]3C(=O)NCc3cccc(Cl)c3F)cc3ccoc23)c1 (relative stereo) [Compound 217e, (trans)-N1-(7-(3-(aminomethyl)phenyl)benzofuran-5-yl)-N2-(3-chloro-2-fluorobenzyl)cyclopentane-1,2-dicarboxamide] |
| 1000 to 10000 nM | NCc1cccc(-c2cc(OC[C@@H]3CCC[C@H]3C(=O)NCc3cccc(Cl)c3F)cc3ccoc23)c1 (relative stereo) [Compound 340e, (trans)-2-(((7-(3-(aminomethyl)phenyl)benzofuran-5-yl)oxy)methyl)-N-(3-chloro-2-fluorobenzyl)cyclopentanecarboxamide] |
| < 1000 nM | NCc1cccc(-c2cc(C(=O)N[C@@H]3CCC[C@H]3C(=O)NCc3cccc(Cl)c3F)cc3ccoc23)c1 (relative stereo) [Compound 376e, 7-(3-(aminomethyl)phenyl)-N-((trans)-2-((3-chloro-2-fluorobenzyl)carbamoyl)cyclopentyl)benzofuran-5-carboxamide] |
| < 1000 nM | NCc1cccc(-c2cc(COc3ccccc3CC(=O)O)cc3cc(C(N)c4ccccc4)oc23)c1 (single isomer, unassigned; (+)) [Compound 460d, (+)-2-(2-((2-(amino(phenyl)methyl)-7-(3-(aminomethyl)phenyl)benzofuran-5-yl)methoxy)phenyl)acetic acid] |
| < 1000 nM | CC(N)c1cc2cc(COc3ccccc3CC(=O)O)cc(-c3cccc(CN)c3)c2o1 (single isomer, unassigned; (-)) [Compound 442d, (−)-2-(2-((2-(1-aminoethyl)-7-(3-(aminomethyl)phenyl)benzofuran-5-yl)methoxy)phenyl)acetic acid] |
| < 1000 nM | NCc1cccc(-c2cc(C(=O)Nc3ccccc3CC(=O)O)cc3[nH]ncc23)c1 [Compound 7d, 2-(2-(4-(3-(aminomethyl)phenyl)-1H-indazole-6-carboxamido)phenyl)acetic acid] |
| < 1000 nM | NCc1cccc(-c2cc(C(=O)Nc3ccccc3CC(=O)O)cc3[nH]ccc23)c1 [Compound 9d, 2-(2-(4-(3-(aminomethyl)phenyl)-1H-indole-6-carboxamido)phenyl)acetic acid] |
| < 1000 nM | NCc1cccc(-c2cc(C(=O)Nc3ccccc3CC(=O)O)cc3c2cnn3CC2CC2)c1 [Compound 10d, 2-(2-(4-(3-(aminomethyl)phenyl)-1-(cyclopropylmethyl)-1H-indazole-6-carboxamido)phenyl)acetic acid] |
| > 10000 nM | CCOC(=O)Cc1ccccc1NC(=O)c1cc(-c2cccc(CN)c2)c2cn(CC3CC3)nc2c1 [Compound 11a, ethyl 2-(2-(4-(3-(aminomethyl)phenyl)-2-(cyclopropylmethyl)-2H-indazole-6-carboxamido)phenyl)acetate] |

Further lines, the compound ahead of its results:

| Compound | IC50 |
| --- | --- |
| Cc1ccc(CC(=O)O)c(OCc2cc(-c3cccc(C(N)CF)c3)c3occc3c2)c1 (single isomer, unassigned; (+)) [Compound 269h, (+)-2-(2-((7-(3-(1-amino-2-fluoroethyl)phenyl)benzofuran-5-yl)methoxy)-4-methylphenyl)acetic acid] | < 1000 nM |
| COCc1cc2cc(COc3ccccc3CC(=O)O)cc(-c3cccc(C(N)CF)c3)c2o1 (single isomer, unassigned; (+)) [Compound 278e, (+)-2-(2-((7-(3-(1-amino-2-fluoroethyl)phenyl)-2-(methoxymethyl)benzofuran-5-yl)methoxy)phenyl)acetic acid] | < 1000 nM |
| NC(CF)c1cc(-c2cc(COc3ccccc3CC(=O)O)cc3ccoc23)ccn1 (single isomer, unassigned; (+)) [Compound 327d, (+)-2-(2-((7-(2-(1-amino-2-fluoroethyl)pyridin-4-yl)benzofuran-5-yl)methoxy)phenyl)acetic acid] | < 1000 nM |
| NC(CF)c1cccc(-c2cc(COc3ccccc3CC(=O)O)cc3ccoc23)c1F (single isomer, unassigned; (+)) [Compound 402f, (+)-2-(2-((7-(3-(1-amino-2-fluoroethyl)-2-fluorophenyl)benzofuran-5-yl)methoxy)phenyl)acetic acid] | < 1000 nM |
| NCc1ccc(CC(=O)O)c(OCc2cc(-c3cccc(C(N)CF)c3)c3occc3c2)c1 (single isomer, unassigned; (+)) [Compound 410d, (+)-2-(2-((7-(3-(1-amino-2-fluoroethyl)phenyl)benzofuran-5-yl)methoxy)-4-(aminomethyl)phenyl)acetic acid] | < 1000 nM |
| N#Cc1ccc(CC(=O)O)c(OCc2cc(-c3cccc(C(N)CF)c3)c3occc3c2)c1 (single isomer, unassigned; (+)) [Compound 412b, (+)-2-(2-((7-(3-(1-amino-2-fluoroethyl)phenyl)benzofuran-5-yl)methoxy)-4-cyanophenyl)acetic acid] | < 1000 nM |
| CC(=O)Nc1ccc(CC(=O)O)c(OCc2cc(-c3cccc(C(N)CF)c3)c3occc3c2)c1 (single isomer, unassigned; (+)) [Compound 434c, (+)-2-(4-acetamido-2-((7-(3-(1-amino-2-fluoroethyl)phenyl)benzofuran-5-yl)methoxy)phenyl)acetic acid] | < 1000 nM |
| NC(=O)c1ccc(CC(=O)O)c(OCc2cc(-c3cccc(C(N)CF)c3)c3occc3c2)c1 (single isomer, unassigned; (+)) [Compound 436c, (+)-2-(2-((7-(3-(1-amino-2-fluoroethyl)phenyl)benzofuran-5-yl)methoxy)-4-carbamoylphenyl)acetic acid] | < 1000 nM |
| COCc1cc2cc(COc3cc(C)ccc3CC(=O)O)cc(-c3cccc(C(N)CF)c3)c2o1 (single isomer, unassigned; (+)) [Compound 455c, (+)-2-(2-((7-(3-(1-amino-2-fluoroethyl)phenyl)-2-(methoxymethyl)benzofuran-5-yl)methoxy)-4-methylphenyl)acetic acid] | < 1000 nM |
| NC(CF)c1cc(-c2cc(COc3ccccc3CC(=O)O)cc3ccoc23)ccn1 (single isomer, unassigned; (-)) [Compound 326g, (−)-2-(2-((7-(2-(1-amino-2-fluoroethyl)pyridin-4-yl)benzofuran-5-yl)methoxy)phenyl)acetic acid] | 1000 to 10000 nM |
| NCc1cccc(-c2nc(C(=O)Nc3ccccc3CC(=O)O)c3cccn3n2)c1 [Compound 1h, 2-(2-(2-(3-(aminomethyl)phenyl)pyrrolo[2,1-f][1,2,4]triazine-4-carboxamido)phenyl)acetic acid] | < 1000 nM |
| COC(=O)Cc1ccccc1NC(=O)c1nc(-c2cccc(CN)c2)nc2c1CCC2 [Compound 2e, methyl 2-(2-(2-(3-(aminomethyl)phenyl)-6,7-dihydro-5H-cyclopenta[d]pyrimidine-4-carboxamido)phenyl)acetate] | > 10000 nM |
| NCc1cccc(-c2nc3c(c(C(=O)Nc4ccccc4CC(=O)O)n2)CCC3)c1 [Compound 2f, 2-(2-(2-(3-(aminomethyl)phenyl)-6,7-dihydro-5H-cyclopenta[d]pyrimidine-4-carboxamido)phenyl)acetic acid] | < 1000 nM |
| NCc1cccc(-c2nc(C(=O)Nc3ccccc3CC(=O)O)nc3[nH]ccc23)c1 [Compound 3i, 2-(2-(4-(3-(aminomethyl)phenyl)-7H-pyrrolo[2,3-d]pyrimidine-2-carboxamido)phenyl)acetic acid] | < 1000 nM |
| C[C@@H](N)c1cccc(-c2nc(C(=O)Nc3ccccc3CC(=O)O)c3cccn3n2)c1 [Compound 4e, (R)-2-(2-(2-(3-(1-aminoethyl)phenyl)pyrrolo[2,1-f][1,2,4]triazine-4-carboxamido)phenyl)acetic acid] | < 1000 nM |
| CCOC(=O)Cc1ccccc1NC(=O)c1nc(-c2cccc(CN)c2)c2cccn2n1 [Compound 5g, ethyl 2-(2-(4-(3-(aminomethyl)phenyl)pyrrolo[2,1-f][1,2,4]triazine-2-carboxamido)phenyl)acetate] | < 1000 nM |
| NCc1cccc(-c2cc(C(=O)Nc3ccccc3CC(=O)O)c3nccn3c2)c1 [Compound 6e, 2-(2-(6-(3-(aminomethyl)phenyl)imidazo[1,2-a]pyridine-8-carboxamido)phenyl)acetic acid] | 1000 to 10000 nM |
| NCc1cccc(-c2nc(COc3ccccc3CC(=O)O)nn3cccc23)c1 [Compound 8e, 2-(2-((4-(3-(aminomethyl)phenyl)pyrrolo[2,1-f][1,2,4]triazin-2-yl)methoxy)phenyl)acetic acid] | < 1000 nM |
